According to US20260297042A1, “BIARYLAMIDE DERIVATIVES AND THEIR USE AS PKMYT1 INHIBITORS” (CANCER RESEARCH TECHNOLOGY LIMITED, priority 2023, published 2026):

Legend:
OVCAR 3 cells = experiment: Cancer cell line proliferation assay, ATP-based cell viability (Cell Titre Glow), OVCAR 3 (CCNE1-amplified); conditions: KYSE30 (normal CCNE1) GI50 vs. OVCAR 3 (CCNE1-amplified) GI50
How it was run: (§1)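 Luminescence read-out from an ATP-based viability reagent served as the proliferation measure. Values are GI50 estimates, i.e. concentrations producing 50% inhibition of cell growth.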

WEE1 = target: T1, WEE1 (Homo sapiens, UniProt P30291); experiment: Selectivity versus WEE1 assay (ADP-Glo enzymatic assay); assay type: biochemical; conditions: for IC50: WEE1 15 nM, ADP-Glo, banded values; for PKMYT1 vs. WEE1 selectivity: fold difference in selectivity for PKMYT1 over WEE1, banded
T1 construct: purchased Thermo Fisher PR7373A
How it was run: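 Kinase at 15 nM final in 50 mM HEPES pH 7.5, 10 mM MgCl2, 1 mM EGTA, 0.01% Brij-35, 1% DMSO was started with 30 µM ATP and run 60 min at 26° C. ADP formed was read by ADP-Glo luminescence; IC50 came from dose-response curves.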

Human PKMYT1 = target: T2, Human PKMYT1 (Homo sapiens, UniProt Q99640); experiment: PKMYT1 biochemical ADP-Glo enzymatic assay; conditions: PKMYT1 kinase domain 15 nM; ADP-Glo; banded values
T2 construct: Human PKMYT1 75-362 was cloned as a TEV cleavable 6xHis fusion; 6xHis (TEV cleavable) (cleaved yes); made in house; host or cells: bacterial cells
T2 sequence (Q99640 75-362): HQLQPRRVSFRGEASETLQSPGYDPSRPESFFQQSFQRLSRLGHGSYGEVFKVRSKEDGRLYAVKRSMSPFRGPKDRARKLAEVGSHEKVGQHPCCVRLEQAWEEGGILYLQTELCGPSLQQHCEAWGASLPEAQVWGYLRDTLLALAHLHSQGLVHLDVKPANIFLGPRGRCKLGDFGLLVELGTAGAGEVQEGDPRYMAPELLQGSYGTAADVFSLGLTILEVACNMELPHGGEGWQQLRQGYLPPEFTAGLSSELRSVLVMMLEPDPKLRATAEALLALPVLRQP
How it was run: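 Intrinsic ATPase activity of E. coli-expressed, tag-cleaved human PKMYT1 kinase domain (75-362), 15 nM, with 500 µM ATP in HEPES pH 7.5/MgCl2/EGTA/Brij-35, 1% DMSO, 60 min at 26 °C. ADP formed was read by ADP-Glo Max luminescence; IC50 from 10-point, 3-fold dilution curves.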

KYSE-30 cells = experiment: Cancer cell line proliferation assay, ATP-based cell viability (Cell Titre Glow), KYSE-30 (normal CCNE1); conditions: Homo sapiens, KYSE-30 cells (normal CCNE1), concentration that achieves 50% cell growth proliferation inhibition, read-out: KYSE30 Gl50
How it was run: as §1

T1 sequence (P30291 whole entry): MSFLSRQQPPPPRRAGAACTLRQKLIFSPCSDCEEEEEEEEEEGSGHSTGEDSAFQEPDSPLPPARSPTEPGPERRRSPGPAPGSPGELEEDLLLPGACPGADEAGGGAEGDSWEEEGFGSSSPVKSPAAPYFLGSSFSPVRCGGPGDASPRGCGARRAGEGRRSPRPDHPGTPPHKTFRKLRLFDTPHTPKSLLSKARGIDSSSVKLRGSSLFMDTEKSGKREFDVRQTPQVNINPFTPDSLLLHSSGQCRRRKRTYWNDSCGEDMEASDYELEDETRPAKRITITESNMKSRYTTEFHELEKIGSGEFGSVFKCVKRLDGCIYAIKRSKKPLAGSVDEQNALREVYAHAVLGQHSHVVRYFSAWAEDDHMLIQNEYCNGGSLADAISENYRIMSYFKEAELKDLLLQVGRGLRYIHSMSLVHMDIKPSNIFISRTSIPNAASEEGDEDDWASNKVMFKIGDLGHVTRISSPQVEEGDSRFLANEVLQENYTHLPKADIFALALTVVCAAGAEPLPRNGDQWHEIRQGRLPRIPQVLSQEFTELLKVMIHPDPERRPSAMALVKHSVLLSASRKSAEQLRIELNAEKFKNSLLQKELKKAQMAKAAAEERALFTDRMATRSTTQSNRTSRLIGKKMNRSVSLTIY

IC50 (WEE1) [nM] | PKMYT1 vs. WEE1 selectivity (WEE1) | IC50 (Human PKMYT1) [nM] | Compound | Selectivity ratio KYSE30 Gl50 vs. OVCAR3 Gl50 (OVCAR 3 cells) | GI50 (KYSE-30 cells) [nM]
1000 to 11000 | X (100-<1000 fold) | < 50 | Cc1ccc(O)c(C)c1NC(=O)c1cnc(Nc2ncnn3cccc23)s1 [BAA-450, N-(3-hydroxy-2,6-dimethylphenyl)-2-(pyrrolo[2,1-f][1,2,4]triazin-4-ylamino)thiazole-5-carboxamide] | X (3-20 fold) | > 5000
1000 to 11000 | X (100-<1000 fold) | < 50 | Cc1ccc(O)c(C)c1NC(=O)c1cnc(Nc2nn(CC(F)(F)F)c3ccccc23)s1 [BAA-457, N-(3-hydroxy-2,6-dimethylphenyl)-2-((1-(2,2,2-trifluoroethyl)-1H-indazol-3-yl)amino)thiazole-5-carboxamide] | Y (>20 fold) | 500 to 5000
1000 to 11000 | X (100-<1000 fold) | 50 to 1000 | CCCn1nc(Nc2ncc(C(=O)Nc3c(C)ccc(O)c3C)s2)c2ccccc21 [BAA-460, N-(3-hydroxy-2,6-dimethylphenyl)-2-((1-propyl-1H-indazol-3-yl)amino)thiazole-5-carboxamide] | Y (>20 fold) | 500 to 5000
1000 to 11000 | X (100-<1000 fold) | < 50 | CCn1cc(C)c(Nc2ncc(C(=O)Nc3c(C)ccc(O)c3C)s2)n1 [BAA-477, 2-((1-ethyl-4-methyl-1H-pyrazol-3-yl)amino)-N-(3-hydroxy-2,6-dimethylphenyl)thiazole-5-carboxamide] | Y (>20 fold) | > 5000
1000 to 11000 | X (100-<1000 fold) | < 50 | CCN(C)C(=O)Cn1cc(C)c(Nc2ncc(C(=O)Nc3c(C)ccc(O)c3C)s2)n1 [BAA-489, 2-((1-(2-(ethyl(methyl)amino)-2-oxoethyl)-4-methyl-1H-pyrazol-3-yl)amino)-N-(3-hydroxy-2,6-dimethylphenyl)thiazole-5-carboxamide] | Y (>20 fold) | > 5000
1000 to 11000 | X (100-<1000 fold) | < 50 | COCCn1cc(C)c(Nc2ncc(C(=O)Nc3c(C)ccc(O)c3C)s2)n1 [BAA-490, N-(3-hydroxy-2,6-dimethylphenyl)-2-((1-(2-methoxyethyl)-4-methyl-1H-pyazol-3-yl)amino)thiazole-5-carboxamide] | Y (>20 fold) | > 5000
1000 to 11000 | X (100-<1000 fold) | < 50 | CCCN(C)C(=O)Cn1cc(C)c(Nc2ncc(C(=O)Nc3c(C)ccc(O)c3C)s2)n1 [BAA-491, N-(3-hydroxy-2,6-dimethylphenyl)-2-((4-methyl-1-(2-(methyl(propyl)amino)-2-oxoethyl)-1H-pyrazol-3-yl)amino)thiazole-5-carboxamide] | Y (>20 fold) | > 5000
1000 to 11000 | X (100-<1000 fold) | < 50 | Cc1cn(CC(=O)N2CCCC2C)nc1Nc1ncc(C(=O)Nc2c(C)ccc(O)c2C)s1 (centres unmarked) [BAA-492, N-(3-hydroxy-2,6-dimethylphenyl)-2-((4-methyl-1-(2-(2-methylpyrrolidin-1-yl)-2-oxoethyl)-1H-pyrazol-3-yl)amino)thiazole-5-carboxamide] | Y (>20 fold) | > 5000
1000 to 11000 | W (10-<100 fold) | 50 to 1000 | CCn1nc(Nc2ncc(C(=O)Nc3c(C)ccc(O)c3C)s2)cc1C [BAA-495, 2-((1-ethyl-5-methyl-1H-pyrazol-3-yl)amino)-N-(3-hydroxy-2,6-dimethylphenyl)thiazole-5-carboxamide] | Y (>20 fold) | > 5000
1000 to 11000 | X (100-<1000 fold) | < 50 | Cc1cn(CC(=O)N2CCC(C)C2)nc1Nc1ncc(C(=O)Nc2c(C)ccc(O)c2C)s1 (centres unmarked) [BAA-497, N-(3-hydroxy-2,6-dimethylphenyl)-2-((4-methyl-1-(2-(3-methylpyrrolidin-1-yl)-2-oxoethyl)-1H-pyrazol-3-yl)amino)thiazole-5-carboxamide] | Y (>20 fold) | > 5000
1000 to 11000 | X (100-<1000 fold) | < 50 | Cc1cn(CC(C)O)nc1Nc1ncc(C(=O)Nc2c(C)ccc(O)c2C)s1 (centres unmarked) [BAA-499, N-(3-hydroxy-2,6-dimethylphenyl)-2-((1-(2-hydroxypropyl)-4-methyl-1H-pyrazol-3-yl)amino)thiazole-5-carboxamide] | Y (>20 fold) | > 5000
1000 to 11000 | X (100-<1000 fold) | < 50 | CCN(CC(F)(F)F)C(=O)Cn1cc(C)c(Nc2ncc(C(=O)Nc3c(C)ccc(O)c3C)s2)n1 [BAA-502, 2-((1-(2-(ethyl(2,2,2-trifluoroethyl)amino)-2-oxoethyl)-4-methyl-1H-pyrazol-3-yl)amino)-N-(3-hydroxy-2,6-dimethylphenyl)thiazole-5-carboxamide] | Y (>20 fold) | > 5000
1000 to 11000 | X (100-<1000 fold) | < 50 | Cc1ccc(O)c(C)c1NC(=O)c1cnc(Nc2ccn(C(C)C(=O)N3CCCC3)n2)s1 (centres unmarked) [BAA-506, N-(3-Hydroxy-2.6-dimethylphenyl)-2-((1-(1-oxo-1-(pyrrolidin-1-yl)propan-2-yl)-1H-pyrazol-3-yl)amino)thiazole-5-carboxamide] | Y (>20 fold) | > 5000
> 11000 | X (100-<1000 fold) | 50 to 1000 | CCN(CC)C(=O)C(C)n1nc(Nc2ncc(C(=O)Nc3c(C)ccc(O)c3C)s2)cc1C (centres unmarked) [BAA-509, 2-((1-(1-(diethylamino)-1-oxopropan-2-yl)-5-methyl-1H-pyrazol-3-yl)amino)-N-(3-hydroxy-2,6-dimethylphenyl)thiazole-5-carboxamide] | Y (>20 fold) | > 5000
> 11000 | Y (1000-5000 fold) | < 50 | CCN(CC)C(=O)C(C)n1ccc(Nc2ncc(C(=O)Nc3c(C)ccc(O)c3C)s2)n1 (centres unmarked) [BAA-512, 2-((1-(1-(diethylamino)-1-oxopropan-2-yl)-1H-pyrazol-3-yl)amino)-N-(3-hydroxy-2,6-dimethylphenyl)thiazole-5-carboxamide] | Y (>20 fold) | > 5000
1000 to 11000 | X (100-<1000 fold) | < 50 | Cc1ccc(O)c(C)c1NC(=O)c1cnc(Nc2nn(C)cc2Cl)s1 [BAA-541, 2-((4-chloro-1-methyl-1H-pyrazol-3-yl)amino)-N-(3-hydroxy-2,6-dimethylphenyl)thiazole-5-carboxamide] | Y (>20 fold) | > 5000
